Test results reported in PubChem BioAssay AID1918991 (Molecular Pharmacology Branch, DTP, NCI, 2023).

System: 186277-243-T-J2-PDC complex spheroid growth
Assay: Anticancer human tumor 186277-243-T-J2-PDC patient-derived colon adenocarcinoma cell line growth inhibition [AhR]
Settings: for IC50: curve of first compound; for viability, T/C: stronger effect = lower value
Procedure, shortened: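 Agents were dosed in half-log steps down from roughly clinical Cmax, or from 10 microM where Cmax was unknown, alone and with AhR antagonists. Read-out: percent test/control growth of tumor spheroids containing HUVEC and MSC stromal cells.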
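Also: spheroids exposed to compounds for seven days before the viability read.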
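For viability, T/C in this document: luminescent signal used as a stand-in for viable cell amount; 100% = DMSO vehicle control wells.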

Molecule `COc1ccc([C@@H](O)c2cc(-c3ncnc4cc(N5CCOCC5)ccc34)c(F)cc2Cl)nn1` + CC(CO)NC(=O)c1cc(-c2ccc(Cl)cc2)nn(-c2cnn(C)c2)c1=O has an IC50 (second compound 0.1 µM) of 3230 nM, an IC50 (second compound 0.316 µM) of 3710 nM and an IC50 (second compound 1 µM) of 3030 nM. It also gave an IC50 (second compound 3.16 µM) of 2560 nM, an IC50 (second compound 10 µM) of 1620 nM and a viability, T/C (second compound 0.1 µM, first compound 0.0316 µM) of 105%. It also gave a viability, T/C (second compound 0.1 µM, first compound 0.1 µM) of 96.3%, a viability, T/C (second compound 0.1 µM, first compound 0.316 µM) of 96.8% and a viability, T/C (second compound 0.1 µM, first compound 1 µM) of 73.5%. For the same molecule, the viability, T/C (second compound 0.1 µM, first compound 3.16 µM) was 51.6%, the viability, T/C (second compound 0.1 µM, first compound 10 µM) was 20.7% and the viability, T/C (second compound 0.316 µM, first compound 0.0316 µM) was 109%. For the same molecule, the viability, T/C (second compound 0.316 µM, first compound 0.1 µM) was 98.8%, the viability, T/C (second compound 0.316 µM, first compound 0.316 µM) was 84.2% and the viability, T/C (second compound 0.316 µM, first compound 1 µM) was 85.1%. It also gave a viability, T/C (second compound 0.316 µM, first compound 3.16 µM) of 53.9%, a viability, T/C (second compound 0.316 µM, first compound 10 µM) of 18.4% and a viability, T/C (second compound 1 µM, first compound 0.0316 µM) of 95.5%. For the same molecule, the viability, T/C (second compound 1 µM, first compound 0.1 µM) was 95.6%, the viability, T/C (second compound 1 µM, first compound 0.316 µM) was 87.3% and the viability, T/C (second compound 1 µM, first compound 1 µM) was 78.8%. The viability, T/C (second compound 1 µM, first compound 3.16 µM) was 48.4%, the viability, T/C (second compound 1 µM, first compound 10 µM) was 19.1% and the viability, T/C (second compound 3.16 µM, first compound 0.0316 µM) was 88.3%. It also gave a viability, T/C (second compound 3.16 µM, first compound 0.1 µM) of 95.7%, a viability, T/C (second compound 3.16 µM, first compound 0.316 µM) of 87% and a viability, T/C (second compound 3.16 µM, first compound 1 µM) of 74.8%. The viability, T/C (second compound 3.16 µM, first compound 3.16 µM) was 44.5%, the viability, T/C (second compound 3.16 µM, first compound 10 µM) was 18.1% and the viability, T/C (second compound 10 µM, first compound 0.0316 µM) was 88.8%. It also gave a viability, T/C (second compound 10 µM, first compound 0.1 µM) of 72.6%, a viability, T/C (second compound 10 µM, first compound 0.316 µM) of 78.9% and a viability, T/C (second compound 10 µM, first compound 1 µM) of 64%. For the same molecule, the viability, T/C (second compound 10 µM, first compound 3.16 µM) was 30.7% and the viability, T/C (second compound 10 µM, first compound 10 µM) was 15.6%.

Molecule `O=C(C=Cn1cnc(-c2cc(C(F)(F)F)cc(C(F)(F)F)c2)n1)NNc1cnccn1` + CC(CO)NC(=O)c1cc(-c2ccc(Cl)cc2)nn(-c2cnn(C)c2)c1=O has an IC50 (second compound 0.1 µM) of 86.6 nM, an IC50 (second compound 0.316 µM) of 89.2 nM and an IC50 (second compound 1 µM) of 73.2 nM. The IC50 (second compound 3.16 µM) was 72.9 nM, the IC50 (second compound 10 µM) was 43.9 nM and the viability, T/C (second compound 0.1 µM, first compound 0.00949 µM) was 80.4%. It also gave a viability, T/C (second compound 0.1 µM, first compound 0.03 µM) of 78.3%, a viability, T/C (second compound 0.1 µM, first compound 0.0949 µM) of 46.8% and a viability, T/C (second compound 0.1 µM, first compound 0.3 µM) of 13.1%. The viability, T/C (second compound 0.1 µM, first compound 0.949 µM) was 3.75%, the viability, T/C (second compound 0.1 µM, first compound 3 µM) was 1.33% and the viability, T/C (second compound 0.316 µM, first compound 0.00949 µM) was 78%. For the same molecule, the viability, T/C (second compound 0.316 µM, first compound 0.03 µM) was 83.5%, the viability, T/C (second compound 0.316 µM, first compound 0.0949 µM) was 46.7% and the viability, T/C (second compound 0.316 µM, first compound 0.3 µM) was 12.6%. The viability, T/C (second compound 0.316 µM, first compound 0.949 µM) was 4.18%, the viability, T/C (second compound 0.316 µM, first compound 3 µM) was 1.56% and the viability, T/C (second compound 1 µM, first compound 0.00949 µM) was 83.3%. The viability, T/C (second compound 1 µM, first compound 0.03 µM) was 67.6%, the viability, T/C (second compound 1 µM, first compound 0.0949 µM) was 46.9% and the viability, T/C (second compound 1 µM, first compound 0.3 µM) was 13.4%. The viability, T/C (second compound 1 µM, first compound 0.949 µM) was 4.21%, the viability, T/C (second compound 1 µM, first compound 3 µM) was 1.3% and the viability, T/C (second compound 3.16 µM, first compound 0.00949 µM) was 67.8%. For the same molecule, the viability, T/C (second compound 3.16 µM, first compound 0.03 µM) was 63.8%, the viability, T/C (second compound 3.16 µM, first compound 0.0949 µM) was 46% and the viability, T/C (second compound 3.16 µM, first compound 0.3 µM) was 12.6%. It also gave a viability, T/C (second compound 3.16 µM, first compound 0.949 µM) of 4.26%, a viability, T/C (second compound 3.16 µM, first compound 3 µM) of 2.11% and a viability, T/C (second compound 10 µM, first compound 0.00949 µM) of 62%. The viability, T/C (second compound 10 µM, first compound 0.03 µM) was 55%, the viability, T/C (second compound 10 µM, first compound 0.0949 µM) was 38% and the viability, T/C (second compound 10 µM, first compound 0.3 µM) was 11.7%. The viability, T/C (second compound 10 µM, first compound 0.949 µM) was 3.48% and the viability, T/C (second compound 10 µM, first compound 3 µM) was 2.03%.
